Measurements from patent US20020102688A1, “Methods and products for the synthesis of oligosaccharide structures on glycoproteins, glycolipids, or as free molecules, and for the isolation of cloned genetic sequences that determine these structures” (The Regents of the University of Michigan, priority 1990, published 2002).

Key:
Fuc-TV = molecular target: T1, Fuc-TV (Homo sapiens, UniProt Q11128); test: Fucosyltransferase assay, extracts of COS-1 cells transfected with pCDNA1-Fuc-TV; format: biochemical; details: for utilization as acceptor substrate by Fuc-TV (in words): extracts of COS-1 cells transfected with pCDNA1-Fuc-TV; for Relative Activity (%) with Fuc-TV: relative product formation rate, N-acetyllactosamine = 100, acceptor 20 mM (2-fucosyllactose 5 mM), GDP-[14C]fucose 3 μM, transfected COS-1 cell extract
T1 construct: a 1.94 kb Earl-Xbal fragment containing the entire open reading frame was cloned into a mammalian expression vector; expressed in transfected cells; host or cells: COS-1 cells, transient transfection, 1% Triton X-100 extract
T1 sequence (Q11128 1-374): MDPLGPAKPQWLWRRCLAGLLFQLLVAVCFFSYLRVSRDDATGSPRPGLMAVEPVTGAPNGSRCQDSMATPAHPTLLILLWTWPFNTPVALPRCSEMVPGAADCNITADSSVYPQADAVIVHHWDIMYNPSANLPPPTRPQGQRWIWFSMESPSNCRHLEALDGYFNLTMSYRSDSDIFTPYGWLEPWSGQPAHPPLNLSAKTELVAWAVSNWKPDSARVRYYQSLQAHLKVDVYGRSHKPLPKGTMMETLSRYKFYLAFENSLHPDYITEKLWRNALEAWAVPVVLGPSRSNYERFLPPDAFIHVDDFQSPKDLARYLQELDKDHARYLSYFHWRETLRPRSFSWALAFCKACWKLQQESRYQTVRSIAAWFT
Protocol: Cell extracts containing 1% Triton X-100 were prepared from transfected COS-1 cells. Fucosyltransferase assays were performed in a total volume of 20 μl, and contained 25 mM sodium cacodylate, pH6.2, 5 mM ATP, 10 mM L-fucose, 10 mM MnCl2, 3 μM GDP-^14C-fucose, and 5 μl of cell extract. Acceptor substrates were added to a final concentration of 20 mM. Reactions were incubated at 37° C. for 1 hour and terminated by addition of 20 μl ethanol, followed by addition of 600 μl of distilled water. An aliquot of each reaction (50 μl) was subjected to scintillation counting to determine total radioactivity in the reaction. Another aliquot (200 μl) was applied to a column containing 400 μl of Dowex 1X2-400, formate form. The flow through fraction, and […] of a subsequent water elution, were collected and pooled, and an aliquot was subjected to scintillation counting to quantitate incorporation of radioactive fucose into neutral product.
(§1) Table 2 presents the relative product formation rates obtained with low molecular weight acceptor substrates using cell extracts containing recombinant human α(1,3)fucosyltransferases expressed in transfected COS-1 cells, as described in the preceding sections. Fucosyltransferase assays were performed as described in detail in Lowe et al, J. Biol. Chem., (1991), 266:17467-17477; Weston et al, J. Biol. Chem. (1992), 267:4152-4160; and Kukowska-Latallo et al, Genes. Devel., (1990), 4:1288-1303. For each enzyme, the same extract was used, with saturating amounts of each acceptor oligosaccharide (20 mM, except for 2′-fucosylactose which was used at 5 mM), and GDP-^14C]fucose was present at 3 μM. Reaction times and enzyme amounts were adjusted to ensure a linear rate of product formation (less than 15% of the GDP-fucose substrate consumed). Products were separated by column chromatography and quantitated by liquid scintillation counting, and their structures were confirmed by high performance liquid chromatography, as described in Lowe et al, J. Biol. Chem., (1991), 266:17467-17477; Weston et al, J. Biol. Chem. (1992), 267:4152-4160; and Kukowska-Latallo et al, Genes. Devel., (1990), 4:1288-1303.

Fuc-TIV = molecular target: T2, Fuc-TIV (Homo sapiens, UniProt P22083); test: Fucosyltransferase assay, extracts of COS-1 cells transfected with pCDNA1-Fuc-TIV; format: biochemical; parameters: expressed in transfected cells; host or cells: COS-1 cells, transient transfection, 1% Triton X-100 extract; details: for fucose transfer to acceptor: pCDNA1-Fuc-TIV COS-1 extracts with relatively large activity toward N-acetyllactosamine; for Relative Activity (%) with Fuc-TIV: relative product formation rate, N-acetyllactosamine = 100, acceptor 20 mM (2-fucosyllactose 5 mM), GDP-[14C]fucose 3 μM, transfected COS-1 cell extract; for fucosyltransferase activity with acceptor substrate: standard assay, extracts of pCDNA1-Fuc-TIV transfected COS-1 cells, acceptor 20 mM
T2 sequence (P22083 1-405 isoform P22083-2): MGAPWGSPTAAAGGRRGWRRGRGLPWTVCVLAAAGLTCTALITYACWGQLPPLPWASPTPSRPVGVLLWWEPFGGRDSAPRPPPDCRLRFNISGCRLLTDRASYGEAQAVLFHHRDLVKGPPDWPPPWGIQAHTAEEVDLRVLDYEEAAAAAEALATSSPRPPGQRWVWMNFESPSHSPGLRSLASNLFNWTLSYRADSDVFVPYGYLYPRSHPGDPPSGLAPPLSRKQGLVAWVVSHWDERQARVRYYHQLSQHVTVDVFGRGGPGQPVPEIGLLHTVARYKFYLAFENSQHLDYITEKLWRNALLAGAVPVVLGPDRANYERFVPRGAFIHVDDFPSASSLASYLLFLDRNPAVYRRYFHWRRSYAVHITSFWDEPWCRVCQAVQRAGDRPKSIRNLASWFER
Protocol: Cell extracts containing 1% Triton X-100 were prepared from transfected COS-1 cells. Fucosyltransferase assays were performed in a total volume of 20 μl, and contained 50 mM sodium cacodylate, pH 6.2, 5 mM ATP, 10 mM fucose, 20 mM MnCl2, 3 μM GDP-^14C-fucose, and 5 μl (30 μg protein) of cell extract. Acceptor substrates were added to a final concentration of 20 mM. Reactions were incubated at 37° C. for 1 hour and terminated by addition of 20 μl ethanol, followed by addition of 600 μl of distilled water. An aliquot of each reaction (50 μl) was subjected to scintillation counting to determine total radioactivity in the reaction. Another aliquot (200 μl) was applied to a column containing 400 μl of Dowex IX2-400, formate form. The flow through fraction, and […] of a subsequent water elution, were collected and pooled, and an aliquot was subjected to scintillation counting to quantitate incorporation of radioactive fucose into neutral product. Descending paper chromatography was used to confirm the structure of the product formed with the acceptor N-acetyllactosamine. The neutral product in the Dowex column eluate was concentrated by lyophilization, resuspended in a small volume of water, and fractionated through Whatman No. 40 in phenol/isopropanol/formic acid/water (85:5:10:100, lower layer). After chromatography (40 hours), the air-dried chromatogram was cut into 1 cm strips and the strips eluted into 2 ml of water. Radioactivity in each eluate was determined by scintillation counting after mixing with 10 ml of scintillation cocktail.
as §1

Compound | utilization as acceptor substrate by Fuc-TV (in words) (Fuc-TV) | Relative Activity (%) with Fuc-TV (Fuc-TV) [%] | fucose transfer to acceptor (Fuc-TIV) | Relative Activity (%) with Fuc-TIV (Fuc-TIV) [%] | fucosyltransferase activity with acceptor substrate (Fuc-TIV)
CC(=O)N[C@H]1C(O)O[C@H](CO)[C@@H](O[C@@H]2O[C@H](CO)[C@H](O)[C@H](O)[C@H]2O)[C@@H]1O (stereo partly drawn) [N-acetyllactosamine] | utilized | 100 | 474 pmol/mg/h | 100 | 296 pmol/mg/h
CC(=O)N[C@@H]1[C@@H](O[C@@H]2O[C@H](CO)[C@H](O)[C@H](O)[C@H]2O)[C@H](O)[C@@H](CO)O[C@@H]1O [lacto-N-biose I] | low efficiency | 10 | – | <1 | trace amount
OC[C@H]1O[C@@H](O[C@H]2[C@H](O)[C@@H](O)C(O)O[C@@H]2CO)[C@H](O)[C@@H](O)[C@H]1O (stereo partly drawn) [lactose] | substantially lower efficiencies | 11 | – | 3 | 10 pmol/mg/h
CC(=O)NC1C(O)OC(CO)C(OC2OC(CO)C(O)C(OC3(C(=O)O)CC(O)C(NC(C)=O)C(C(O)C(O)CO)O3)C2O)C1O (stereo not drawn) [α(2,3)sialyllactosamine, NeuAcα(2→3)Galβ(1→4)GlcNAc] | efficiently utilized | 115 | less than 1 pmol/mg-h | <1 | –
Fucα(1,2)Galβ(1,4)Glc [2-fucosyllactose] | substantially lower efficiencies | 42 | – | 6 | 17 pmol/mg/h
